Test system: rats
Test: Open field test of locomotor activity with or without cocaine
Type: in vivo, rat
Details: dosed 1 hour before 5-minute open field test
Description: Rats were dosed either with vehicle or with cocaine in the presence or absence of Compound 1 (0.1 mg/kg. sc). One hour after dosing (i.p. & s.c.), rats were put in a open field, where distance moved and zones crossed were recorded by the ethovision program.
Animals were brought to the lab room 1 hour before the start of the experiment. Rats were injected with compound(s) 1 hour before being placed in the open field. Rats were then placed in open field, and the test lasted for five minutes.

SMILES: NCC1Cc2cc(F)cc(-c3c(Cl)cccc3Cl)c2O1 (centres unmarked) [Compound 1, (7-(2,6-dichlorophenyl)-5-fluoro-2,3-dihydrobenzofuran-2-yl)methanamine]
- reversal of the hyperactivity produced by cocaine (0.1 mg/kg sc + cocaine 3 mg/kg ip, FIG. 1): completely reversed
- effect on locomotor activity alone (0.1 mg/kg sc + vehicle): no effect
